Experimental data from ChEMBL document CHEMBL3867433, “Synthesis and antimicrobial activity of styryl/pyrrolyl/pyrazolyl sulfonylmethyl-1,3,4-oxadiazolyl amines and styryl/pyrrolyl/pyrazolyl sulfonylmethyl-1,3,4-thiadiazolyl amines” (2016).
≈ marks a conversion by molar mass, not a printed value.

Legend:
Assay type in all cases: functional
Staphylococcus aureus [1] = assay: Antibacterial activity against Staphylococcus aureus at 12.5 ug/well after 24 hrs by agar well diffusion method; conditions: read-out: DIZ
Staphylococcus aureus [2] = assay: Antibacterial activity against Staphylococcus aureus at 25 ug/well after 24 hrs by agar well diffusion method; conditions: read-out: DIZ
Staphylococcus aureus [3] = assay: Antibacterial activity against Staphylococcus aureus at 50 ug/well after 24 hrs by agar well diffusion method; conditions: read-out: DIZ
Staphylococcus aureus [4] = assay: Antibacterial activity against Staphylococcus aureus at 100 ug/well after 24 hrs by agar well diffusion method; conditions: read-out: DIZ
Bacillus subtilis [5] = assay: Antibacterial activity against Bacillus subtilis at 12.5 ug/well after 24 hrs by agar well diffusion method; conditions: read-out: DIZ
Bacillus subtilis [6] = assay: Antibacterial activity against Bacillus subtilis at 25 ug/well after 24 hrs by agar well diffusion method; conditions: read-out: DIZ
Bacillus subtilis [7] = assay: Antibacterial activity against Bacillus subtilis at 50 ug/well after 24 hrs by agar well diffusion method; conditions: read-out: DIZ
Bacillus subtilis [8] = assay: Antibacterial activity against Bacillus subtilis at 100 ug/well after 24 hrs by agar well diffusion method; conditions: read-out: DIZ
Pseudomonas aeruginosa [9] = assay: Antibacterial activity against Pseudomonas aeruginosa at 12.5 ug/well after 24 hrs by agar well diffusion method; conditions: read-out: DIZ
Pseudomonas aeruginosa [10] = assay: Antibacterial activity against Pseudomonas aeruginosa at 25 ug/well after 24 hrs by agar well diffusion method; conditions: read-out: DIZ
Pseudomonas aeruginosa [11] = assay: Antibacterial activity against Pseudomonas aeruginosa at 50 ug/well after 24 hrs by agar well diffusion method; conditions: read-out: DIZ
Pseudomonas aeruginosa [12] = assay: Antibacterial activity against Pseudomonas aeruginosa at 100 ug/well after 24 hrs by agar well diffusion method; conditions: read-out: DIZ
Klebsiella pneumoniae [13] = assay: Antibacterial activity against Klebsiella pneumoniae at 12.5 ug/well after 24 hrs by agar well diffusion method; conditions: read-out: DIZ
Klebsiella pneumoniae [14] = assay: Antibacterial activity against Klebsiella pneumoniae at 25 ug/well after 24 hrs by agar well diffusion method; conditions: read-out: DIZ
Klebsiella pneumoniae [15] = assay: Antibacterial activity against Klebsiella pneumoniae at 50 ug/well after 24 hrs by agar well diffusion method; conditions: read-out: DIZ
Klebsiella pneumoniae [16] = assay: Antibacterial activity against Klebsiella pneumoniae at 100 ug/well after 24 hrs by agar well diffusion method; conditions: read-out: DIZ
Aspergillus niger [17] = assay: Antifungal activity against Aspergillus niger assessed as inhibition of spore germination at 12.5 ug/well after 48 hrs by agar well diffusion method; conditions: read-out: DIZ
Aspergillus niger [18] = assay: Antifungal activity against Aspergillus niger assessed as inhibition of spore germination at 25 ug/well after 48 hrs by agar well diffusion method; conditions: read-out: DIZ
Aspergillus niger [19] = assay: Antifungal activity against Aspergillus niger assessed as inhibition of spore germination at 50 ug/well after 48 hrs by agar well diffusion method; conditions: read-out: DIZ
Aspergillus niger [20] = assay: Antifungal activity against Aspergillus niger assessed as inhibition of spore germination at 100 ug/well after 48 hrs by agar well diffusion method; conditions: read-out: DIZ
[21] = Antifungal activity against Penicillium chrysogenum assessed as inhibition of spore germination at 12.5 ug/well after 48 hrs by agar well diffusion method
[22] = Antifungal activity against Penicillium chrysogenum assessed as inhibition of spore germination at 25 ug/well after 48 hrs by agar well diffusion method
[23] = Antifungal activity against Penicillium chrysogenum assessed as inhibition of spore germination at 50 ug/well after 48 hrs by agar well diffusion method
[24] = Antifungal activity against Penicillium chrysogenum assessed as inhibition of spore germination at 100 ug/well after 48 hrs by agar well diffusion method
Penicillium chrysogenum [25] = assay: Ratio of MFC to MIC for Penicillium chrysogenum
Pseudomonas aeruginosa [26] = assay: Ratio of MBC to MIC for Pseudomonas aeruginosa
Staphylococcus aureus [27] = assay: Antibacterial activity against Staphylococcus aureus after 24 hrs by broth dilution method
Bacillus subtilis [28] = assay: Antibacterial activity against Bacillus subtilis after 24 hrs by broth dilution method
Pseudomonas aeruginosa [29] = assay: Antibacterial activity against Pseudomonas aeruginosa after 24 hrs by broth dilution method
Klebsiella pneumoniae [30] = assay: Antibacterial activity against Klebsiella pneumoniae after 24 hrs by broth dilution method
Aspergillus niger [31] = assay: Antifungal activity against Aspergillus niger assessed as inhibition of spore germination after 48 hrs by broth dilution method
[32] = Antifungal activity against Penicillium chrysogenum assessed as inhibition of spore germination after 48 hrs by broth dilution method
Staphylococcus aureus [33] = assay: Bactericidal activity against Staphylococcus aureus after 24 hrs
Bacillus subtilis [34] = assay: Bactericidal activity against Bacillus subtilis after 24 hrs
Pseudomonas aeruginosa [35] = assay: Bactericidal activity against Pseudomonas aeruginosa after 24 hrs
Klebsiella pneumoniae [36] = assay: Bactericidal activity against Klebsiella pneumoniae after 24 hrs
Aspergillus niger [37] = assay: Fungicidal activity against Aspergillus niger assessed as inhibition of spore germination after 48 hrs
Penicillium chrysogenum [38] = assay: Fungicidal activity against Penicillium chrysogenum assessed as inhibition of spore germination after 48 hrs

Row | SMILES | zone of inhibition at 12.5 µg/disc (Staphylococcus aureus [1]) [mm] | zone of inhibition at 25 µg/disc (Staphylococcus aureus [2]) [mm] | zone of inhibition at 50 µg/disc (Staphylococcus aureus [3]) [mm] | zone of inhibition at 100 µg/disc (Staphylococcus aureus [4]) [mm] | zone of inhibition at 12.5 µg/disc (Bacillus subtilis [5]) [mm] | zone of inhibition at 25 µg/disc (Bacillus subtilis [6]) [mm] | zone of inhibition at 50 µg/disc (Bacillus subtilis [7]) [mm] | zone of inhibition at 100 µg/disc (Bacillus subtilis [8]) [mm] | zone of inhibition at 12.5 µg/disc (Pseudomonas aeruginosa [9]) [mm] | zone of inhibition at 25 µg/disc (Pseudomonas aeruginosa [10]) [mm] | zone of inhibition at 50 µg/disc (Pseudomonas aeruginosa [11]) [mm] | zone of inhibition at 100 µg/disc (Pseudomonas aeruginosa [12]) [mm] | zone of inhibition at 12.5 µg/disc (Klebsiella pneumoniae [13]) [mm] | zone of inhibition at 25 µg/disc (Klebsiella pneumoniae [14]) [mm] | zone of inhibition at 50 µg/disc (Klebsiella pneumoniae [15]) [mm] | zone of inhibition at 100 µg/disc (Klebsiella pneumoniae [16]) [mm] | zone of inhibition at 12.5 µg/disc (Aspergillus niger [17]) [mm] | zone of inhibition at 25 µg/disc (Aspergillus niger [18]) [mm] | zone of inhibition at 50 µg/disc (Aspergillus niger [19]) [mm] | zone of inhibition at 100 µg/disc (Aspergillus niger [20]) [mm] | other results
1 | Nc1nnc(CS(=O)(=O)/C=C\c2ccc(Cl)cc2)s1 | 22 | 23 | 24 | 26 | 28 | 29 | 30 | 32 | 24 | 26 | 28 | 34 | 32 | 34 | 36 | 38 | 27 | 29 | 31 | 32 | inhibition zone (IZ) [21]: 34 mm; inhibition zone (IZ) [22]: 35 mm; inhibition zone (IZ) [23]: 37 mm; inhibition zone (IZ) [24]: 41 mm; Ratio (Penicillium chrysogenum [25]): 2; Ratio (Pseudomonas aeruginosa [26]): 2; MIC (Staphylococcus aureus [27]): 25 µg/mL (≈ 79.2 µM); MIC (Bacillus subtilis [28]): 25 µg/mL (≈ 79.2 µM); MIC (Pseudomonas aeruginosa [29]): 6.25 µg/mL (≈ 19.8 µM); MIC (Klebsiella pneumoniae [30]): 12.5 µg/mL (≈ 39.6 µM); MIC (Aspergillus niger [31]): 12.5 µg/mL (≈ 39.6 µM); MIC [32]: 12.5 µg/mL (≈ 39.6 µM); MBC (Staphylococcus aureus [33]): > 100 µg/mL; MBC (Bacillus subtilis [34]): 100 µg/mL (≈ 317 µM); MBC (Pseudomonas aeruginosa [35]): 12.5 µg/mL (≈ 39.6 µM); MBC (Klebsiella pneumoniae [36]): 50 µg/mL (≈ 158 µM); MFC (Aspergillus niger [37]): 50 µg/mL (≈ 158 µM); MFC (Penicillium chrysogenum [38]): 25 µg/mL (≈ 79.2 µM)
2 | CC(=O)N1CCN(c2ccc(OCC3COC(Cn4ccnc4)(c4ccc(Cl)cc4Cl)O3)cc2)CC1 (stereo not drawn) [KETOCONAZOLE] | – | – | – | – | – | – | – | – | – | – | – | – | – | – | – | – | 29 | 31 | 34 | 37 | inhibition zone (IZ) [21]: 34 mm; inhibition zone (IZ) [22]: 36 mm; inhibition zone (IZ) [23]: 37 mm; inhibition zone (IZ) [24]: 39 mm; MIC (Aspergillus niger [31]): 6.25 µg/mL (≈ 11.8 µM); MIC [32]: 12.5 µg/mL (≈ 23.5 µM)
3 | Nc1nnc(CS(=O)(=O)c2c[nH]cc2-c2ccc(Cl)cc2)s1 | 17 | 19 | 21 | 23 | 21 | 22 | 23 | 25 | 20 | 22 | 24 | 26 | 28 | 30 | 32 | 34 | 15 | 17 | 19 | 21 | inhibition zone (IZ) [21]: 29 mm; inhibition zone (IZ) [22]: 32 mm; inhibition zone (IZ) [23]: 34 mm; inhibition zone (IZ) [24]: 37 mm; Ratio (Penicillium chrysogenum [25]): >2; Ratio (Pseudomonas aeruginosa [26]): >2; MIC (Staphylococcus aureus [27]): 50 µg/mL (≈ 141 µM); MIC (Bacillus subtilis [28]): 50 µg/mL (≈ 141 µM); MIC (Pseudomonas aeruginosa [29]): 25 µg/mL (≈ 70.5 µM); MIC (Klebsiella pneumoniae [30]): 25 µg/mL (≈ 70.5 µM); MIC (Aspergillus niger [31]): 25 µg/mL (≈ 70.5 µM); MIC [32]: 50 µg/mL (≈ 141 µM); MBC (Staphylococcus aureus [33]): > 200 µg/mL; MBC (Bacillus subtilis [34]): > 200 µg/mL; MBC (Pseudomonas aeruginosa [35]): 100 µg/mL (≈ 282 µM); MBC (Klebsiella pneumoniae [36]): > 100 µg/mL; MFC (Aspergillus niger [37]): 100 µg/mL (≈ 282 µM); MFC (Penicillium chrysogenum [38]): > 200 µg/mL
4 | Cc1ccc(/C=C\S(=O)(=O)Cc2nnc(N)s2)cc1 | 19 | 20 | 21 | 23 | 25 | 26 | 27 | 29 | 21 | 23 | 25 | 27 | 23 | 25 | 27 | 29 | 22 | 24 | 26 | 28 | inhibition zone (IZ) [21]: 25 mm; inhibition zone (IZ) [22]: 27 mm; inhibition zone (IZ) [23]: 29 mm; inhibition zone (IZ) [24]: 31 mm
5 | Nc1nnc(CS(=O)(=O)c2n[nH]cc2-c2ccc(Cl)cc2)s1 | 21 | 22 | 23 | 25 | 26 | 27 | 28 | 30 | 24 | 26 | 28 | 31 | 30 | 32 | 34 | 36 | 24 | 26 | 28 | 30 | inhibition zone (IZ) [21]: 31 mm; inhibition zone (IZ) [22]: 33 mm; inhibition zone (IZ) [23]: 35 mm; inhibition zone (IZ) [24]: 38 mm; Ratio (Penicillium chrysogenum [25]): >2; Ratio (Pseudomonas aeruginosa [26]): >2; MIC (Staphylococcus aureus [27]): 50 µg/mL (≈ 141 µM); MIC (Bacillus subtilis [28]): 25 µg/mL (≈ 70.3 µM); MIC (Pseudomonas aeruginosa [29]): 12.5 µg/mL (≈ 35.1 µM); MIC (Klebsiella pneumoniae [30]): 25 µg/mL (≈ 70.3 µM); MIC (Aspergillus niger [31]): 25 µg/mL (≈ 70.3 µM); MIC [32]: 12.5 µg/mL (≈ 35.1 µM); MBC (Staphylococcus aureus [33]): 200 µg/mL (≈ 562 µM); MBC (Bacillus subtilis [34]): 100 µg/mL (≈ 281 µM); MBC (Pseudomonas aeruginosa [35]): 50 µg/mL (≈ 141 µM); MBC (Klebsiella pneumoniae [36]): > 100 µg/mL; MFC (Aspergillus niger [37]): 100 µg/mL (≈ 281 µM); MFC (Penicillium chrysogenum [38]): 50 µg/mL (≈ 141 µM)
6 | O=C(N[C@H](CO)[C@H](O)c1ccc([N+](=O)[O-])cc1)C(Cl)Cl [CHLORAMPHENICOL] | 30 | 32 | 35 | 37 | 32 | 34 | 36 | 40 | 25 | 27 | 29 | 32 | 38 | 40 | 42 | 44 | – | – | – | – | MIC (Staphylococcus aureus [27]): 6.25 µg/mL (≈ 19.3 µM); MIC (Bacillus subtilis [28]): 6.25 µg/mL (≈ 19.3 µM); MIC (Pseudomonas aeruginosa [29]): 6.25 µg/mL (≈ 19.3 µM); MIC (Klebsiella pneumoniae [30]): 12.5 µg/mL (≈ 38.7 µM)
